Results taken from BigSolDB 2.1.

CCOC(=O)C1=C(C)NC(C)=C(C(=O)OCC)C1
Conditions | solubility (mole fraction)
in 2-butanone, 272.15 K | 0.00182
in 2-butanone, 278.15 K | 0.00274
in 2-butanone, 283.15 K | 0.00382
in 2-butanone, 288.15 K | 0.00525
in 2-butanone, 293.15 K | 0.00717
in 2-butanone, 298.15 K | 0.00965
in 2-butanone, 303.35 K | 0.013
in 2-butanone, 308.25 K | 0.0171
in 2-butanone, 313.15 K | 0.0222
in 2-butanone, 318.15 K | 0.0288
in 2-butanone, 323.65 K | 0.038
in 2-pentanone, 272.15 K | 0.00169
in 2-pentanone, 278.15 K | 0.00255
in 2-pentanone, 283.15 K | 0.00353
in 2-pentanone, 288.15 K | 0.00485
in 2-pentanone, 293.15 K | 0.00657
in 2-pentanone, 298.15 K | 0.00881
in 2-pentanone, 303.35 K | 0.0119
in 2-pentanone, 308.25 K | 0.0155
in 2-pentanone, 313.15 K | 0.0202
in 2-pentanone, 318.15 K | 0.026
in 2-pentanone, 323.65 K | 0.0345
in acetone, 272.15 K | 0.00112
in acetone, 278.15 K | 0.00165
in acetone, 283.15 K | 0.00225
in acetone, 288.15 K | 0.00304
in acetone, 293.15 K | 0.00407
in acetone, 298.15 K | 0.0054
in acetone, 303.35 K | 0.00718
in acetone, 308.25 K | 0.00926
in acetone, 313.15 K | 0.0119
in acetone, 318.15 K | 0.0152
in acetone, 323.65 K | 0.02
in acetonitrile, 272.15 K | 0.000235
in acetonitrile, 278.15 K | 0.000356
in acetonitrile, 283.15 K | 0.000495
in acetonitrile, 288.15 K | 0.000687
in acetonitrile, 293.15 K | 0.000931
in acetonitrile, 298.15 K | 0.00126
in acetonitrile, 303.35 K | 0.0017
in acetonitrile, 308.25 K | 0.00224
in acetonitrile, 313.15 K | 0.00291
in acetonitrile, 318.15 K | 0.0038
in acetonitrile, 323.65 K | 0.00503
in ethanol, 272.15 K | 0.000414
in ethanol, 277.95 K | 0.000587
in ethanol, 283.15 K | 0.000795
in ethanol, 288.15 K | 0.00105
in ethanol, 293.05 K | 0.00137
in ethanol, 298.15 K | 0.00179
in ethanol, 303.15 K | 0.00232
in ethanol, 308.05 K | 0.00294
in ethanol, 312.35 K | 0.00362
in ethanol, 318.15 K | 0.00472
in ethanol, 323.15 K | 0.0059
in ethyl acetate, 272.15 K | 0.00135
in ethyl acetate, 278.15 K | 0.00195
in ethyl acetate, 283.15 K | 0.00261
in ethyl acetate, 288.15 K | 0.00345
in ethyl acetate, 293.15 K | 0.00453
in ethyl acetate, 298.15 K | 0.00588
in ethyl acetate, 303.35 K | 0.00767
in ethyl acetate, 308.25 K | 0.00977
in ethyl acetate, 313.15 K | 0.0123
in ethyl acetate, 318.15 K | 0.0155
in ethyl acetate, 323.65 K | 0.0198
in ethyl formate, 272.15 K | 0.00082
in ethyl formate, 278.15 K | 0.00117
in ethyl formate, 283.15 K | 0.00155
in ethyl formate, 288.15 K | 0.00204
in ethyl formate, 293.15 K | 0.00266
in ethyl formate, 298.15 K | 0.00343
in ethyl formate, 303.35 K | 0.00444
in ethyl formate, 308.25 K | 0.00562
in ethyl formate, 313.15 K | 0.00703
in ethyl formate, 318.15 K | 0.00881
in ethyl formate, 323.65 K | 0.0112
in isobutanol, 272.15 K | 0.000707
in isobutanol, 277.95 K | 0.00106
in isobutanol, 283.15 K | 0.00151
in isobutanol, 288.15 K | 0.00209
in isobutanol, 293.05 K | 0.00283
in isobutanol, 298.15 K | 0.00386
in isobutanol, 303.15 K | 0.00517
in isobutanol, 308.05 K | 0.00684
in isobutanol, 312.35 K | 0.00863
in isobutanol, 318.15 K | 0.0117
in isobutanol, 323.15 K | 0.0152
in isopentanol, 272.15 K | 0.000677
in isopentanol, 277.95 K | 0.000996
in isopentanol, 283.15 K | 0.00139
in isopentanol, 288.15 K | 0.00189
in isopentanol, 293.05 K | 0.00254
in isopentanol, 298.15 K | 0.00341
in isopentanol, 303.15 K | 0.0045
in isopentanol, 308.05 K | 0.00587
in isopentanol, 312.35 K | 0.00738
in isopentanol, 318.15 K | 0.00989
in isopentanol, 323.15 K | 0.0126
in isopropanol, 272.15 K | 0.000462
in isopropanol, 277.95 K | 0.00066
in isopropanol, 283.15 K | 0.000904
in isopropanol, 288.15 K | 0.0012
in isopropanol, 293.05 K | 0.00158
in isopropanol, 298.15 K | 0.00208
in isopropanol, 303.15 K | 0.00269
in isopropanol, 308.05 K | 0.00344
in isopropanol, 312.35 K | 0.00424
in isopropanol, 318.15 K | 0.00557
in isopropanol, 323.15 K | 0.00702
in methanol, 272.15 K | 0.000246
in methanol, 277.95 K | 0.000355
in methanol, 283.15 K | 0.000486
in methanol, 288.15 K | 0.000655
in methanol, 293.05 K | 0.000865
in methanol, 298.15 K | 0.00114
in methanol, 303.15 K | 0.0015
in methanol, 308.05 K | 0.00192
in methanol, 312.35 K | 0.00238
in methanol, 318.15 K | 0.00315
in methanol, 323.15 K | 0.004
in methyl acetate, 272.15 K | 0.00103
in methyl acetate, 278.15 K | 0.00146
in methyl acetate, 283.15 K | 0.00192
in methyl acetate, 288.15 K | 0.00251
in methyl acetate, 293.15 K | 0.00326
in methyl acetate, 298.15 K | 0.0042
in methyl acetate, 303.35 K | 0.00541
in methyl acetate, 308.25 K | 0.00679
in methyl acetate, 313.15 K | 0.00848
in methyl acetate, 318.15 K | 0.0106
in methyl acetate, 323.65 K | 0.0134
in n-butanol, 272.15 K | 0.000605
in n-butanol, 277.95 K | 0.000859
in n-butanol, 283.15 K | 0.00116
in n-butanol, 288.15 K | 0.00154
in n-butanol, 293.05 K | 0.00201
in n-butanol, 298.15 K | 0.00262
in n-butanol, 303.15 K | 0.00338
in n-butanol, 308.05 K | 0.0043
in n-butanol, 312.35 K | 0.00528
in n-butanol, 318.15 K | 0.00691
in n-butanol, 323.15 K | 0.00862
in n-pentanol, 272.15 K | 0.000647
in n-pentanol, 277.95 K | 0.000925
in n-pentanol, 283.15 K | 0.00126
in n-pentanol, 288.15 K | 0.00169
in n-pentanol, 293.05 K | 0.00221
in n-pentanol, 298.15 K | 0.00292
in n-pentanol, 303.15 K | 0.00378
in n-pentanol, 308.05 K | 0.00483
in n-pentanol, 312.35 K | 0.00597
in n-pentanol, 318.15 K | 0.00787
in n-pentanol, 323.15 K | 0.00988
in n-propanol, 272.15 K | 0.000513
in n-propanol, 277.95 K | 0.000735
in n-propanol, 283.15 K | 0.000998
in n-propanol, 288.15 K | 0.00133
in n-propanol, 293.05 K | 0.00174
in n-propanol, 298.15 K | 0.00229
in n-propanol, 303.15 K | 0.00296
in n-propanol, 308.05 K | 0.0038
in n-propanol, 312.35 K | 0.00468
in n-propanol, 318.15 K | 0.00613
in n-propanol, 323.15 K | 0.00773
in toluene, 272.15 K | 0.00015
in toluene, 278.15 K | 0.00023
in toluene, 283.15 K | 0.000323
in toluene, 288.15 K | 0.000449
in toluene, 293.15 K | 0.000618
in toluene, 298.15 K | 0.000839
in toluene, 303.35 K | 0.00114
in toluene, 308.25 K | 0.00151
in toluene, 313.15 K | 0.00198
in toluene, 318.15 K | 0.0026
in toluene, 323.65 K | 0.00346
